Assay results reported in ChEMBL document CHEMBL6087479, “Discovery of a Potent and Selective GSPT1 Molecular Glue Degrader for the Treatment of Castration-Resistant Prostate Cancer” (J Med Chem, 2025).
Active and inactive are the calls of the source. The calls are words filed in the database; no cut-off is given here.

What was measured:
CWR22R [1] = assay: cells; conditions: Homo sapiens, 22Rv1, 96 h
Description: Antiproliferative activity against human 22Rv1 cells assessed as inhibition of cell proliferation incubated for 96 hrs by CellTiter-Glo assay

LNCaP = assay: cells; conditions: Homo sapiens, 96 h
Description: Antiproliferative activity against human LNCaP cells assessed as inhibition of cell proliferation incubated for 96 hrs by CellTiter-Glo assay

LNCaP C4-2B = assay: cells; conditions: Homo sapiens, 96 h
Description: Antiproliferative activity against human LNCaP C4-2B cells assessed as inhibition of cell proliferation incubated for 96 hrs by CellTiter-Glo assay

CWR22R [2] = assay: Downregulation of BRD2 protein level in human 22Rv1 cells at 500 nM incubated for 6 hrs by mass spectrometry-based label-free quantitative proteomics analysis; format: functional, cell-based
[3] = molecular target: Protein cereblon/Bromodomain-containing protein 4 (Homo sapiens) (UniProt O60885+Q96SW2); assay: Molecular glue degradation activity at CRBN/BRD4 in human 22Rv1 cells at 12 to 1000 nM incubated for 6 hrs by Immunoblotting analysis; format: cell-based; conditions: dose 12-1000 nM
CWR22R [4] = assay: Downregulation of GSPT1 protein level in human 22Rv1 cells at 500 nM incubated for 6 hrs by mass spectrometry-based label-free quantitative proteomics analysis; format: functional, cell-based
[5] = molecular target: Protein cereblon/Eukaryotic peptide chain release factor GTP-binding subunit ERF3A (Homo sapiens) (UniProt Q96SW2+P15170); assay: Protac activity at CRBN/GSPT1 in human 22Rv1 cells assessed as GSPT1 degradation at 12 to 1000 nM incubated for 6 hrs by Western blotting analysis; format: cell-based; conditions: dose 12-1000 nM
Sequence of Protein cereblon/Eukaryotic peptide chain release factor GTP-binding subunit ERF3A (Homo sapiens) (P15170 whole entry, looked up): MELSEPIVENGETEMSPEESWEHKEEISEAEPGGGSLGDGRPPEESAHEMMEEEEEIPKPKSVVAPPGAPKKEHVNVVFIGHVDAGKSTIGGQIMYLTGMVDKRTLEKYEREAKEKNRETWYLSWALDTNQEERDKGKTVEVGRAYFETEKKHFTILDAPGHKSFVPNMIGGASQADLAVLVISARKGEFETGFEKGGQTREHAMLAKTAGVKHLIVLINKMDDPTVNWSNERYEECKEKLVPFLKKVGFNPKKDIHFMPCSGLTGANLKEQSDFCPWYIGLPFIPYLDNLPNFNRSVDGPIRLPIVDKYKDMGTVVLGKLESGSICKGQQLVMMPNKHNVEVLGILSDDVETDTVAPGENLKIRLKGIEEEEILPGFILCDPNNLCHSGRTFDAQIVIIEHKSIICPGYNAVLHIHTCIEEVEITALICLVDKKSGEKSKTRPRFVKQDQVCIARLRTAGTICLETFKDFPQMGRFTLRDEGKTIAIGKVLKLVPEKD
Sequence of Protein cereblon/Eukaryotic peptide chain release factor GTP-binding subunit ERF3A (Homo sapiens) (Q96SW2 whole entry, looked up): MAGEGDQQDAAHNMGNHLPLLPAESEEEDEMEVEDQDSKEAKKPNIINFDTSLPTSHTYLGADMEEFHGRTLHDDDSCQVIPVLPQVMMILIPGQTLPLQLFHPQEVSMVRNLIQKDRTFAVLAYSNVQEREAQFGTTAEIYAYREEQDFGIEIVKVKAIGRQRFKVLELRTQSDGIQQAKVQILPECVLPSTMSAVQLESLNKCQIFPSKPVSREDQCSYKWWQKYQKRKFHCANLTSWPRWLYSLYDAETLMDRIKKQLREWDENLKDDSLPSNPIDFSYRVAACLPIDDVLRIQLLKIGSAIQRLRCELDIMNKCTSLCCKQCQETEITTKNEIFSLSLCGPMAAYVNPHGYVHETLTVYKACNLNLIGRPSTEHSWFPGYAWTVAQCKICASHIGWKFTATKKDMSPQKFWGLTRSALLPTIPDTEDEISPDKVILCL

Sequence of Protein cereblon/Bromodomain-containing protein 4 (Homo sapiens) (Q96SW2 whole entry, looked up, other chains not shown): as the sequence (Q96SW2 whole entry, looked up) above

| SMILES | IC50 (CWR22R [1]) [µM] | IC50 (LNCaP) [µM] | IC50 (LNCaP C4-2B) [µM] | Activity (CWR22R [2]) | Activity [3] | Activity (CWR22R [4]) | Activity [5] |
| --- | --- | --- | --- | --- | --- | --- | --- |
| COc1ccc(Br)cc1S(=O)(=O)Nc1cc2c(C)noc2cc1OCC(=O)NCCNc1cccc2c1C(=O)N(C1CCC(=O)NC1=O)C2=O (centres undefined) | > 10 | > 10 | > 10 | – | – | – | – |
| COc1ccc(Br)cc1S(=O)(=O)Nc1cc2c(C)noc2cc1OCC(=O)NCCCCNC(=O)COc1cccc2c1C(=O)N(C1CCC(=O)NC1=O)C2=O (centres undefined) | > 10 | > 10 | > 10 | – | – | – | – |
| COc1ccc(Br)cc1S(=O)(=O)Nc1cc2c(C)noc2cc1OCC(=O)NCCCNC(=O)COc1cccc2c1C(=O)N(C1CCC(=O)NC1=O)C2=O (centres undefined) | > 10 | > 10 | > 10 | – | – | – | – |
| COc1ccc(Br)cc1S(=O)(=O)Nc1cc2c(C)noc2cc1OCC(=O)NCCNc1ccc2c(c1)C(=O)N(C1CCC(=O)NC1=O)C2=O (centres undefined) | > 10 | > 10 | > 10 | – | – | – | – |
| Cc1sc2c(c1C)C(c1ccc(Cl)cc1)=N[C@@H](CC(=O)NCCCCNC(=O)COc1cccc3c1C(=O)N(C1CCC(=O)NC1=O)C3=O)c1nnc(C)n1-2 (some centres undefined) | 1.75 | 2.25 | 3.11 | Active | Active | inactive | – |
| COc1ccc(Br)cc1S(=O)(=O)Nc1cc2c(C)noc2cc1OCC(=O)NCCCCCCNc1cccc2c1C(=O)N(C1CCC(=O)NC1=O)C2=O (centres undefined) | 0.909 | 2.48 | > 10 | – | inactive | – | Active; Moderate Effect Of Degradation Observed |
| COc1ccc(Br)cc1S(=O)(=O)Nc1cc2c(C)noc2cc1OCC(=O)NCCCCNc1cccc2c1C(=O)N(C1CCC(=O)NC1=O)C2=O (centres undefined) | 0.062 | 0.112 | 1.43 | – | inactive | – | Active; Moderate Effect Of Degradation Observed |
| COc1ccc(Br)cc1S(=O)(=O)Nc1cc2c(C)noc2cc1OCC(=O)NCCCCNc1ccc2c(c1)C(=O)N(C1CCC(=O)NC1=O)C2=O (centres undefined) | > 10 | > 10 | > 10 | – | – | – | – |
| COc1ccc(Br)cc1S(=O)(=O)Nc1cc2c(C)noc2cc1OCC(=O)NCCCCCCNc1ccc2c(c1)C(=O)N(C1CCC(=O)NC1=O)C2=O (centres undefined) | > 10 | > 10 | > 10 | – | – | – | – |
